Experimental data taken from patent US12629355B2, “Drug inhibitor against migration and invasion of cancer cells and methods of treating against metastasis of cancer cells” (HOWARD UNIVERSITY, priority 2019, dated 2026).

System: U251 cells
Assay: Transwell invasion assay (FIG. 10)
Assay type: cell-based
Conditions: serum free media with TGF in upper chamber, about 14 hours
Description: A transwell assay is conducted as a means for testing for invasion. A transwell invasion assay can be used to test the invasive potential of cells in response migration inducers or inhibitors. This assay is also known as modified Boyden chamber assay. During this assay, cells are placed on the upper layer of a cell culture insert with permeable membrane and a solution containing the test agent is placed below the cell permeable membrane. Following an incubation period (3-18 hours) at 37° C. in a humidified chamber, the cells that have stuck during the migration towards the lower chamber through the membrane are stained and counted. […] Collectively, these findings (as shown in FIG. 9 and FIG. 10) indicate that administering a representative compound (SD 29-14) played a significant functional role in the regulation of U251 glioma cell migration and invasion.
In measuring cell invasion, 12-well transwell chambers (Corning Inc., Kennebunk, ME) were used with 6.5 mm inserts and 8.0 μm membrane pore size. […] Invasive cells on the bottom surface were fixed with 4% paraformaldehyde for 15 min and stained with 0.2% crystal violet for 15 minutes and the cells were counted and photographed under a light microscope.

Nn1c(S)nnc1-c1cc(Cl)cc(Cl)c1 [SD 29-14]
cells on the membrane (invasion): hardly any cells were observed on the membrane
